Read-outs that look alike come from different tables or passages of the source. Where a SMILES comes first, the peptide text is derived from it. Bridges are numbered along the chain shown (N, C = ends). [ ]: non-standard residue; d: D form. The star is where a group is joined. Hexanoyl = CCCCCC(=O)*
Biological target: T1, NPR-B (Homo sapiens, UniProt P20594)
T1 construct: a functional assay using endogenously NPR-B expressing GTM-3 cells; endogenous in cells; host or cells: GTM-3 (transformed human trabecular meshwork cells)
T1 sequence (P20594 23-1047): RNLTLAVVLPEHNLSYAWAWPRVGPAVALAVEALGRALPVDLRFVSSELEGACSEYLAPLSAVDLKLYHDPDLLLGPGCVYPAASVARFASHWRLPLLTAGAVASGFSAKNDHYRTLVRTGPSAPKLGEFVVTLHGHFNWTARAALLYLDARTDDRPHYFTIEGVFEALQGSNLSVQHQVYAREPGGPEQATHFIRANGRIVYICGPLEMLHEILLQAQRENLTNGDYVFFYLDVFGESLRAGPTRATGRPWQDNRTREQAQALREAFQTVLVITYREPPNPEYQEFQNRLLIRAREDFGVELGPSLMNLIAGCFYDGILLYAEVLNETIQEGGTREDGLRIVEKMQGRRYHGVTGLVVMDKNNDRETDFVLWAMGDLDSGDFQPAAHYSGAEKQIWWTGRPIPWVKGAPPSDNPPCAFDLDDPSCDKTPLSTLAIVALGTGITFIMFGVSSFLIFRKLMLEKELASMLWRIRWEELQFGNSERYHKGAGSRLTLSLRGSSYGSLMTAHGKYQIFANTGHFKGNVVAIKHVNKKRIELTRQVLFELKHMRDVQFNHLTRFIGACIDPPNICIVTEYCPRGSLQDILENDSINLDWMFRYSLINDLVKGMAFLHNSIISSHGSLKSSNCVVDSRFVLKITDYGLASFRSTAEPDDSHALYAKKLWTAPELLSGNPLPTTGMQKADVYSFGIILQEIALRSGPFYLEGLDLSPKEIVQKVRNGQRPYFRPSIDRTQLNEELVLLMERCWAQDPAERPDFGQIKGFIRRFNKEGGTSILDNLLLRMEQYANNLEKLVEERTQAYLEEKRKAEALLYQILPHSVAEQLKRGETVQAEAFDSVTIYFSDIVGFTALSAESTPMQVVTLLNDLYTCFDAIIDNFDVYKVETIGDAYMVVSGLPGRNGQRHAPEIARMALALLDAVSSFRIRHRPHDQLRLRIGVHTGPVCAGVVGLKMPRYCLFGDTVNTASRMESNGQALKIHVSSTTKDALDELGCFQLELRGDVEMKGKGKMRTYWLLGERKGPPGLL
Assay: NPR-B induced production of cyclic GMP in GTM-3 cells
Type: cell-based
Experimental: The efficacy and potency of compounds to activate NPR-B were evaluated in a functional assay using endogenously NPR-B expressing GTM-3 cells (Pang et al. 1994, Curr Eye Res 13:51-63). In this assay the dose dependent production of cyclic GMP (cGMP) is determined and Emax (maximum activation) and EC50 values are calculated.
The cell culture medium is aspirated and each well is washed with 200 μl DMEM/Ham's F12=Medium (Gibco). Then, 200 μl Medium supplemented with 1 mM IBMX (3-Isobutyl-1-methyl-xanthin, Sigma) is added to each well and incubated for 15 min. at room temperature.
Final compound concentrations are in the range from 45 μM to 20 nM.

[1] = Activity (group): NPR-B activation, EC50 and Emax (CNP = 100%)
[2] = GTM-3 cells, group needs both EC50 and Emax criteria, checked A then B then C, read-out: Activity (group): NPR-B activation, EC50 and Emax (CNP = 100%)

EC50 [2] [µM] | Structure (SMILES) | EC50 [1] [µM]
 | CC[C@H](C)[C@@H]1NC(=O)[C@H](CCCNC(=N)N)NC(=O)[C@H](CC(=O)O)NC(=O)[C@H](CC(C)C)NC(=O)[C@H](CCCCN)NC(=O)[C@H](CC(C)C)NC(=O)CNC(=O)[C@H](Cc2ccccc2)NC(=O)[C@@H](C)NC(=O)[C@@H](NC(=O)CCCc2ccccc2)CSSC[C@@H](C(N)=O)NC(=O)[C@H](CO)NC1=O [compound 72] | < 1
< 5 | CC[C@H](C)[C@@H]1NC(=O)[C@H](CCCNC(=N)N)NC(=O)[C@H](CC(=O)O)NC(=O)[C@H](CC(C)C)NC(=O)[C@H](CCCCN)NC(=O)[C@H](CC(C)C)NC(=O)CNC(=O)[C@H](Cc2ccccc2)NC(=O)[C@H](Cc2c[nH]cn2)NC(=O)[C@@H](NC(=O)[C@@H](N)CCSC)CSSC[C@@H](C(=O)N[C@@H](Cc2ccc(O)cc2)C(N)=O)NC(=O)[C@H](CO)NC1=O [compound 6] (H-MCHFGLKLDRISCY-NH2; disulfide 2-13) | 
< 5 | CC[C@H](C)[C@@H]1NC(=O)[C@H](CCCNC(=N)N)NC(=O)[C@H](CC(=O)O)NC(=O)[C@H](CC(C)C)NC(=O)[C@H](CCCCN)NC(=O)[C@H](CC(C)C)NC(=O)CNC(=O)[C@H](Cc2ccccc2)NC(=O)[C@@H](CC(N)=O)NC(=O)[C@@H](NC(=O)[C@@H](N)CCSC)CSSC[C@@H](C(N)=O)NC(=O)[C@H](CO)NC1=O [compound 40] | 
< 5 | CCCCCC(=O)N[C@H]1CSSC[C@@H](C(N)=O)NC(=O)[C@H](CO)NC(=O)[C@H]([C@@H](C)CC)NC(=O)[C@H](CCCNC(=N)N)NC(=O)[C@H](CC(=O)O)NC(=O)[C@H](CC(C)C)NC(=O)[C@H](CCCCN)NC(=O)CNC(=O)CNC(=O)[C@H](Cc2ccccc2)NC(=O)[C@@H](C)NC1=O [compound 102] (Hexanoyl-C[dA]FGGKLDRISC-NH2; disulfide 1-12) | 
< 1 | CCCCCC(=O)N[C@H]1CSSC[C@@H](C(N)=O)NC(=O)[C@H](CO)NC(=O)[C@H]([C@@H](C)CC)NC(=O)[C@H](CCCNC(=N)N)NC(=O)[C@H](CC(=O)O)NC(=O)[C@H]([C@@H](C)CC)NC(=O)[C@H](CCCCN)NC(=O)[C@H](CC(C)C)NC(=O)CNC(=O)[C@H](Cc2ccccc2)NC(=O)[C@@H](C)NC1=O [compound 87] (Hexanoyl-C[dA]FGLKIDRISC-NH2; disulfide 1-12) | 
< 5 | CC[C@H](C)[C@@H]1NC(=O)[C@H](CCCNC(=N)N)NC(=O)[C@H](CC(=O)O)NC(=O)[C@H](CC(C)C)NC(=O)[C@H](CCCCN)NC(=O)[C@H](CC(C)C)NC(=O)CNC(=O)[C@H](Cc2ccccc2)NC(=O)[C@H](Cc2c[nH]cn2)NC(=O)[C@@H](NC(=O)[C@@H](N)CCSC)CSSC[C@@H](C(=O)N[C@@H](Cc2ccc(O)cc2)C(=O)N[C@@H](CCCNC(=N)N)C(N)=O)NC(=O)[C@H](CO)NC1=O [compound 5] (H-MCHFGLKLDRISCYR-NH2; disulfide 2-13) | 
< 1 | CCCCCC(=O)N[C@H]1CSSC[C@@H](C(N)=O)NC(=O)[C@H](CO)NC(=O)[C@H]([C@@H](C)CC)NC(=O)[C@H](CCCNC(=N)N)NC(=O)[C@H](CC(=O)O)NC(=O)[C@H](CC(C)C)NC(=O)[C@H](CCCCN)NC(=O)[C@H](CC(C)C)NC(=O)CNC(=O)[C@H](Cc2ccccc2)NC(=O)[C@H]2CCCN2C1=O [compound 90] | 
< 5 | CC[C@H](C)[C@@H]1NC(=O)[C@H](CCCNC(=N)N)NC(=O)[C@H](CC(=O)O)NC(=O)[C@H](CC(C)C)NC(=O)[C@H](CCCCN)NC(=O)[C@H](CC(C)C)NC(=O)CNC(=O)[C@H](Cc2ccccc2)NC(=O)[C@H](Cc2c[nH]cn2)NC(=O)[C@@H](NC(=O)[C@@H](N)CCSC)CSSC[C@@H](C(=O)N[C@@H](Cc2ccc(O)cc2)C(=O)N[C@@H](CC(N)=O)C(N)=O)NC(=O)[C@H](CO)NC1=O [compound 27] (H-MCHFGLKLDRISCYN-NH2; disulfide 2-13) | 
< 5 | CCCCCC(=O)N[C@H]1CSSC[C@@H](C(N)=O)NC(=O)[C@H](CO)NC(=O)[C@H]([C@@H](C)CC)NC(=O)[C@H](CCCNC(=N)N)NC(=O)[C@H](CC(=O)O)NC(=O)[C@H](CC(C)C)NC(=O)[C@H](CCCCN)NC(=O)[C@H]([C@@H](C)O)NC(=O)CNC(=O)[C@H](Cc2ccccc2)NC(=O)[C@@H](C)NC1=O [compound 100] (Hexanoyl-C[dA]FGTKLDRISC-NH2; disulfide 1-12) | 
< 5 | CC[C@H](C)[C@@H]1NC(=O)[C@H](CCCNC(=N)N)NC(=O)[C@H](CC(=O)O)NC(=O)[C@H](CC(C)C)NC(=O)[C@H](CCCCN)NC(=O)[C@H](CC(C)C)NC(=O)[C@@H](C)NC(=O)[C@H](Cc2ccccc2)NC(=O)[C@@H](Cc2c[nH]cn2)NC(=O)[C@@H](NC(=O)[C@@H](N)CCSC)CSSC[C@@H](C(N)=O)NC(=O)[C@H](CO)NC1=O [compound 35] | 
 | CCC(=O)N[C@H]1CSSC[C@@H](C(N)=O)NC(=O)[C@H](CO)NC(=O)[C@H]([C@@H](C)CC)NC(=O)[C@H](CCCNC(=N)N)NC(=O)[C@H](CC(=O)O)NC(=O)[C@H](CC(C)C)NC(=O)[C@H](CCCCN)NC(=O)[C@H](CC(C)C)NC(=O)CNC(=O)[C@H](Cc2ccccc2)NC(=O)[C@@H](C)NC1=O [compound 62] | < 5
< 5 | CC[C@H](C)[C@@H]1NC(=O)[C@H](CCCNC(=N)N)NC(=O)[C@H](CC(=O)O)NC(=O)[C@H](CC(C)C)NC(=O)[C@H](CCCCN)NC(=O)[C@H](CC(C)C)NC(=O)CNC(=O)[C@H](Cc2ccccc2)NC(=O)[C@H](C)NC(=O)[C@@H](NC(=O)[C@@H](N)CCSC)CSSC[C@@H](C(N)=O)NC(=O)[C@H](CO)NC1=O [compound 8] | 

Structure (SMILES) | EC50 [2] [µM] | EC50 [1] [µM]
CC[C@H](C)[C@@H]1NC(=O)[C@H](CCCNC(=N)N)NC(=O)[C@H](CC(=O)O)NC(=O)[C@H](CC(C)C)NC(=O)[C@H](CCCCN)NC(=O)[C@H](CC(C)C)NC(=O)CNC(=O)[C@H](Cc2ccccc2)NC(=O)[C@H](Cc2c[nH]cn2)NC(=O)[C@H](NC(=O)[C@@H](N)CCSC)CSSC[C@@H](C(N)=O)NC(=O)[C@H](CO)NC1=O [compound 11] | < 15 | 
CC[C@H](C)[C@@H]1NC(=O)[C@H](CCCNC(=N)N)NC(=O)[C@H](CC(=O)O)NC(=O)[C@H](CC(C)C)NC(=O)[C@H](CCCCN)NC(=O)[C@H](CC(C)C)NC(=O)CNC(=O)[C@H](Cc2ccccc2)NC(=O)[C@H](Cc2c[nH]cn2)NC(=O)[C@@H](NC(=O)[C@@H](N)CCSC)CSSC[C@@H](C(=O)N[C@@H](Cc2ccc(O)cc2)C(=O)N[C@@H](CO)C(N)=O)NC(=O)[C@H](CO)NC1=O [compound 26] (H-MCHFGLKLDRISCYS-NH2; disulfide 2-13) | < 15 | 
CCCCCC(=O)N[C@H]1CSSC[C@@H](C(N)=O)NC(=O)[C@H](CO)NC(=O)C2(CCSCC2)NC(=O)[C@H](CCCNC(=N)N)NC(=O)[C@H](CC(=O)O)NC(=O)[C@H](CC(C)C)NC(=O)[C@H](CCCCN)NC(=O)[C@H](CC(C)C)NC(=O)CNC(=O)[C@H](Cc2ccccc2)NC(=O)[C@@H](C)NC1=O [compound 117] | < 15 | 
CC[C@H](C)[C@@H]1NC(=O)[C@H](CCCNC(=N)N)NC(=O)[C@H](CC(=O)O)NC(=O)[C@H](CC(C)C)NC(=O)[C@H](CCCCN)NC(=O)[C@H](CC(C)C)NC(=O)CNC(=O)[C@H](Cc2ccccc2)NC(=O)[C@H](Cc2c[nH]cn2)NC(=O)[C@@H](NC(=O)[C@@H](N)CCSC)CSSC[C@@H](C(=O)O)NC(=O)[C@H](CO)NC1=O [compound 15] | < 15 | 
CC[C@H](C)[C@@H]1NC(=O)[C@H](CCCNC(=N)N)NC(=O)[C@H](CC(=O)O)NC(=O)[C@H](CC(C)C)NC(=O)[C@H](CCCCN)NC(=O)[C@H](CC(C)C)NC(=O)CNC(=O)[C@H](Cc2ccccc2)NC(=O)[C@H](Cc2c[nH]cn2)NC(=O)[C@@H](NC(=O)[C@@H](N)CCSC)CSSC[C@@H](C(=O)N[C@@H](Cc2c[nH]c3ccccc23)C(=O)N[C@@H](CCCNC(=N)N)C(N)=O)NC(=O)[C@H](CO)NC1=O [compound 21] (H-MCHFGLKLDRISCWR-NH2; disulfide 2-13) | < 15 | 

From patent US9458198B1, “Cyclic peptide-based NPR-B agonists” (priority 2009, dated 2016)
